Source: ChEMBL document CHEMBL1201862, “PubChem BioAssay data set” (2004)
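Method: 48-hour compound exposure of cells in 96-well plates, five concentrations, linear interpolation of endpoints. Abbreviation: GI50, concentration required for 50% inhibition of growth.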 The source made the active and inactive calls. No stated cut-off is given here; in the data, active = GI50 up to about 1.1 µM and inactive = higher.

Columns and labels:
Test in all cases: NCI anticancer screen, dose series, 48 h
A549 = test system: A549
TK-10 = test system: TK-10
CAKI-1 = test system: CAKI-1
SW-620 = test system: SW-620
K562 = test system: K562
A498 = test system: A498
786-0 = test system: 786-0
SN12C = test system: SN12C
SF-268 = test system: SF-268
UACC-62 = test system: UACC-62
HL-60 = test system: HL-60
NCI/ADR-RES = test system: NCI/ADR-RES
COLO 205 = test system: COLO 205
HCC 2998 = test system: HCC 2998
SNB-75 = test system: SNB-75
HOP-92 = test system: HOP-92
DU-145 = test system: DU-145
UACC-257 = test system: UACC-257
RPMI-8226 = test system: RPMI-8226
IGROV-1 = test system: IGROV-1

Row | Structure (SMILES) | GI50 (A549) | GI50 (TK-10) | GI50 (CAKI-1) | GI50 (SW-620) | GI50 (K562) | GI50 (A498) | GI50 (786-0) | GI50 (SN12C) | GI50 (SF-268) | GI50 (UACC-62) | GI50 (HL-60) | GI50 (NCI/ADR-RES) | GI50 (COLO 205) | GI50 (HCC 2998) | GI50 (SNB-75) | GI50 (HOP-92) | GI50 (DU-145) | GI50 (UACC-257) | GI50 (RPMI-8226) | GI50 (IGROV-1)
1 | CCOC(=O)/C=C/c1cccc(F)c1 | > 100 µM (inactive) | > 100 µM (inactive) | > 100 µM (inactive) | > 100 µM (inactive) | > 100 µM (inactive) | > 100 µM (inactive) | > 100 µM (inactive) | > 100 µM (inactive) | > 100 µM (inactive) | > 100 µM (inactive) | > 100 µM (inactive) | > 100 µM (inactive) | > 100 µM (inactive) | > 100 µM (inactive) | > 100 µM (inactive) | > 100 µM (inactive) | > 100 µM (inactive) | > 100 µM (inactive) | > 100 µM (inactive) | > 100 µM (inactive)
2 | CCCCCCCCC[n+]1cccc(C2C(C(=O)OCC)=C(C)NC(C)=C2C(=O)OCC)c1 | 18.2 µM (inactive) | 10.7 µM (inactive) | 13.6 µM (inactive) | 4.26 µM (inactive) | 3.89 µM (inactive) | 18.2 µM (inactive) | 7.08 µM (inactive) | 4.67 µM (inactive) | 4.67 µM (inactive) | 1.54 µM (inactive) | 2.82 µM (inactive) | 52.6 µM (inactive) | 2.56 µM (inactive) | 6.01 µM (inactive) | 3.67 µM (inactive) | 1.95 µM (inactive) | 11.6 µM (inactive) | 2.38 µM (inactive) | 1.54 µM (inactive) | 2.02 µM (inactive)
3 | CCOC(=O)C(Cc1cc(OC)c(CC(C(=O)OCC)C(=O)OCC)cc1OC)C(=O)OCC | > 100 µM (inactive) | > 100 µM (inactive) | > 100 µM (inactive) | > 100 µM (inactive) | > 100 µM (inactive) | > 100 µM (inactive) | 61.5 µM (inactive) | > 100 µM (inactive) | > 94.4 µM (inactive) | > 100 µM (inactive) | > 100 µM (inactive) | > 100 µM (inactive) | > 100 µM (inactive) | > 100 µM (inactive) | 28.6 µM (inactive) | 26.9 µM (inactive) | > 100 µM (inactive) | > 100 µM (inactive) | > 100 µM (inactive) | > 100 µM (inactive)
4 | CC(=O)n1nc(-c2ccccc2)n(/N=C/c2ccc([N+](=O)[O-])o2)c1=O | 7.21 µM (inactive) | 11.5 µM (inactive) | 9.46 µM (inactive) | 5.87 µM (inactive) | 8.83 µM (inactive) | 2.47 µM (inactive) | 2.21 µM (inactive) | 2.13 µM (inactive) | 3.08 µM (inactive) | 10.4 µM (inactive) | 3.59 µM (inactive) | 9.73 µM (inactive) | 7.36 µM (inactive) | 4.53 µM (inactive) | 10.2 µM (inactive) | 9.86 µM (inactive) | 7.91 µM (inactive) | 7.23 µM (inactive) | 10 µM (inactive) | 15.9 µM (inactive)
5 | O=C(Nc1ccc2ccccc2c1)c1cc2cc(CCl)ccc2oc1=O | > 100 µM (inactive) | 33.2 µM (inactive) | > 100 µM (inactive) | > 100 µM (inactive) | 54 µM (inactive) | > 100 µM (inactive) | 39.4 µM (inactive) | > 100 µM (inactive) | 14.2 µM (inactive) | > 100 µM (inactive) | > 100 µM (inactive) | > 100 µM (inactive) | > 100 µM (inactive) | > 100 µM (inactive) | 15.2 µM (inactive) | 51.5 µM (inactive) | > 100 µM (inactive) | > 100 µM (inactive) | > 100 µM (inactive) | > 100 µM (inactive)
6 | Cc1csc2nc(-c3ccc([N+](=O)[O-])cc3)c(/C=N/N=C(N)N)n12 | 1.84 µM (inactive) | 1.92 µM (inactive) | 4.73 µM (inactive) | 1.94 µM (inactive) | 1.81 µM (inactive) | 1.82 µM (inactive) | 1.94 µM (inactive) | 1.71 µM (inactive) | 1.68 µM (inactive) | 1.71 µM (inactive) | 1.85 µM (inactive) | 6.89 µM (inactive) | 1.53 µM (inactive) | < 0.01 µM (active) | 1.58 µM (inactive) | < 0.01 µM (active) | 2.21 µM (inactive) | 1.91 µM (inactive) | 2.05 µM (inactive) | 1.44 µM (inactive)
